# Measurements reported in ChEMBL document CHEMBL5712891, “Inhibition of BET bromodomain-dependent XIAP and FLIP expression sensitizes KRAS-mutated NSCLC to pro-apoptotic agents” (Cell Death Dis, 2016).
# Calls of active or inactive are those of the source. The rule behind the calls is not given here.
# Tests used:
# A549 [1] = test: Induction of cell cycle arrest in human A549 cells assessed as accumulation of cells at G0/G1 phase at 0.25 uM for 24 hrs by Click-iT EdU Alexa Fluor 647 flow cytometric assay kit analysis (reference value: 61%); type: functional
# DV-90 [2] = test: Induction of cell cycle arrest in human DV-90 cells assessed as accumulation of cells at G0/G1 phase at 0.5 uM for 24 hrs by Click-iT EdU Alexa Fluor 647 flow cytometric assay kit analysis (reference value: 44%); type: functional
# NCI-H1373 [3] = test: Induction of cell cycle arrest in human NCI-H1373 cells assessed as accumulation of cells at G0/G1 phase at 0.5 uM for 24 hrs by Click-iT EdU Alexa Fluor 647 flow cytometric assay kit analysis (reference value: 40%); type: functional
# NCI-H1373 [4] = test: Induction of cell cycle arrest in human NCI-H1373 cells assessed as accumulation of cells at G0/G1 phase at 0.25 uM for 24 hrs by Click-iT EdU Alexa Fluor 647 flow cytometric assay kit analysis (reference value: 40%); type: functional
# NCI-H1373 [5] = test: Induction of cell cycle arrest in human NCI-H1373 cells assessed as accumulation of cells at S phase at 0.1 uM for 24 hrs by Click-iT EdU Alexa Fluor 647 flow cytometric assay kit analysis (reference value: 45%); type: functional
# NCI-H1373 [6] = test: Induction of cell cycle arrest in human NCI-H1373 cells assessed as accumulation of cells at G0/G1 phase at 0.1 uM for 24 hrs by Click-iT EdU Alexa Fluor 647 flow cytometric assay kit analysis (reference value: 40%); type: functional
# A549 [7] = test: Induction of apoptosis in human A549 cells assessed as necrotic cells at 0.5 uM for 24 hrs by annexin V-PI staining based flow cytometric analysis (reference value: 1.3%); type: functional
# NCI-H1373 [8] = test: Induction of apoptosis in human NCI-H1373 cells assessed as necrotic cells at 0.5 uM for 24 hrs by annexin V-PI staining based flow cytometric analysis (reference value: 5.5%); type: functional
# NCI-H460 [9] = test: Induction of apoptosis in human NCI-H460 cells assessed as necrotic cells at 0.5 uM for 24 hrs by annexin V-PI staining based flow cytometric analysis (reference value: 2.7%); type: functional
# NCI-H1373 [10] = test: Downregulation of c-MYC mRNA expression level in human NCI-H1373 cells at 0.1 to 1 uM for 24 hrs by qRT-PCR analysis; type: functional, cell-based; settings: dose 0.1-1 µM
# SK-LU-1 = test: Downregulation of c-MYC mRNA expression level in human SK-LU-1 cells at 0.1 to 1 uM for 24 hrs by qRT-PCR analysis; type: functional, cell-based; settings: dose 0.1-1 µM
# NCI-H460 [11] = test: Downregulation of c-MYC mRNA expression level in human NCI-H460 cells at 0.1 to 1 uM for 24 hrs by qRT-PCR analysis; type: functional, cell-based; settings: dose 0.1-1 µM
# NCI-H1373 [12] = test: Downregulation of c-MYC level SCID mouse tumor tissue xenografted with human NCI-H1373 cells at 50 mg/kg, ip for 24 hrs by Western blot analysis; type: functional, organism-based; settings: Neoplasm
# NCI-H1373 [13] = test: Downregulation of XIAP mRNA expression level in human NCI-H1373 cells at 0.1 to 1 uM for 24 hrs by qRT-PCR analysis; type: functional, cell-based; settings: dose 0.1-1 µM
# DV-90 [14] = test: Downregulation of FLIP mRNA expression level in human DV-90 cells at 0.1 to 1 uM for 24 hrs by qRT-PCR analysis; type: functional, cell-based; settings: dose 0.1-1 µM
# NCI-H441 = test: Downregulation of c-MYC protein expression level in human NCI-H441 cells at 1 uM for 24 hrs by […] analysis; type: functional, cell-based
# A549 [15] = test: Downregulation of c-MYC protein expression level in human A549 cells at 1 uM for 24 hrs by […] analysis; type: functional, cell-based
# NCI-H1373 [16] = test: Antiproliferative activity against human NCI-H1373 cells at 500 to 2500 nM in presence of TNF by cell titre glo assay; type: functional, cell-based; settings: dose 500-2500 nM
# A549 [17] = test: Induction of apoptosis in human A549 cells assessed as viable cells at 1 uM by annexin V-PI based flow cytometric analysis (reference value: 95.7%); type: functional; settings: read-out: Activity
# A549 [18] = test: Induction of apoptosis in human A549 cells assessed as early apoptotic cells at 1 uM by annexin V-PI based flow cytometric analysis (reference value: 0.2%); type: functional
# A549 [19] = test: Induction of apoptosis in human A549 cells assessed as late apoptotic cells at 1 uM in presenc of cisplatin by annexin V-PI based flow cytometric analysis (reference value: 2.5%); type: functional
# A549 [20] = test: Induction of apoptosis in human A549 cells assessed as necrotic cells at 1 uM in presence of cisplatin by annexin V-PI based flow cytometric analysis (reference value: 1.6%); type: functional
# DV-90 [21] = test: Induction of cell cycle arrest in human DV-90 cells assessed as accumulation of cells at G0/G1 phase at 0.1 uM for 24 hrs by Click-iT EdU Alexa Fluor 647 flow cytometric assay kit analysis (reference value: 47%); type: functional
# DV-90 [22] = test: Induction of cell cycle arrest in human DV-90 cells assessed as accumulation of cells at G0/G1 phase at 1 uM for 24 hrs by Click-iT EdU Alexa Fluor 647 flow cytometric assay kit analysis (reference value: 47%); type: functional
# NCI-H1373 [23] = test: Induction of apoptosis in human NCI-H1373 cells assessed as viable cells at 0.5 uM for 24 hrs by annexin V-PI staining based flow cytometric analysis (reference value: 71.6%); type: functional; settings: read-out: Activity
# NCI-H1373 [24] = test: Induction of apoptosis in human NCI-H1373 cells assessed as necrotic cells at 2.5 uM for 24 hrs by annexin V-PI staining based flow cytometric analysis (reference value: 4.4%); type: functional
# NCI-H460 [25] = test: Induction of apoptosis in human NCI-H460 cells assessed as late apoptotic cells at 0.5 uM for 24 hrs by annexin V-PI staining based flow cytometric analysis (reference value: 3.7%); type: functional
# DV-90 [26] = test: Induction of cell cycle arrest in human DV-90 cells assessed as accumulation of cells at G0/G1 phase at 0.25 uM for 24 hrs by Click-iT EdU Alexa Fluor 647 flow cytometric assay kit analysis (reference value: 45%); type: functional
# DV-90 [27] = test: Induction of cell cycle arrest in human DV-90 cells assessed as accumulation of cells at G2/M phase at 0.25 uM for 24 hrs by Click-iT EdU Alexa Fluor 647 flow cytometric assay kit analysis (reference value: 25%); type: functional
# DV-90 [28] = test: Induction of cell cycle arrest in human DV-90 cells assessed as accumulation of cells at G2/M phase at 0.5 uM for 24 hrs by Click-iT EdU Alexa Fluor 647 flow cytometric assay kit analysis (reference value: 25%); type: functional
# NCI-H1373 [29] = test: Induction of cell cycle arrest in human NCI-H1373 cells assessed as accumulation of cells at G0/G1 phase at 0.25 uM for 24 hrs by Click-iT EdU Alexa Fluor 647 flow cytometric assay kit analysis (reference value: 48%); type: functional
# NCI-H460 [30] = test: Induction of cell cycle arrest in human NCI-H460 cells assessed as accumulation of cells at G0/G1 phase at 0.5 uM for 24 hrs by Click-iT EdU Alexa Fluor 647 flow cytometric assay kit analysis (reference value: 45%); type: functional
smiles,measurement,setting,value
Cc1sc2c(c1C)C(c1ccc(Cl)cc1)=N[C@@H](CC(=O)OC(C)(C)C)c1nnc(C)n1-2,Activity,A549 [1],63%
same,Activity,DV-90 [2],51%
same,Activity,NCI-H1373 [3],63%
same,Activity,NCI-H1373 [4],60%
same,Activity,NCI-H1373 [5],36%
same,Activity,NCI-H1373 [6],44%
same,Activity,A549 [7],1.2%
same,Activity,NCI-H1373 [8],13%
same,Activity,NCI-H460 [9],4%
same,Activity,NCI-H1373 [10],Active
same,Activity,SK-LU-1,Active
same,Activity,NCI-H460 [11],Active
same,Activity,NCI-H1373 [12],Active
same,Activity,NCI-H1373 [13],Active
same,Activity,DV-90 [14],Active
same,Activity,NCI-H441,Active
same,Activity,A549 [15],Active
same,Activity,NCI-H1373 [16],Active
same,viability at 1 µM,A549 [17],98%
same,Activity,A549 [18],0.1%
same,Activity,A549 [19],28.5%
same,Activity,A549 [20],10.3%
Cc1sc2c(c1C)C(c1ccc(Cl)cc1)=N[C@@H](CC(=O)Nc1ccc(O)cc1)c1nnc(C)n1-2 [BIRABRESIB],Activity,DV-90 [21],50%
same,Activity,DV-90 [22],60%
same,viability at 0.5 µM,NCI-H1373 [23],67.4%
same,Activity,NCI-H1373 [24],21.4%
same,Activity,NCI-H460 [25],4.6%
CCNC(=O)C[C@@H]1N=C(c2ccc(Cl)cc2)c2cc(OC)ccc2-n2c(C)nnc21 [MOLIBRESIB],Activity,DV-90 [26],49%
same,Activity,DV-90 [27],31%
same,Activity,DV-90 [28],30%
same,Activity,NCI-H1373 [29],65%
same,Activity,NCI-H460 [30],51%
